The numbers were not newly measured in publication PMC7687107 (Chemmedchem, 2020), which cites them from elsewhere.

For orientation: Kd means a measure of binding affinity in units of concentration.

For the data set, the target named is tRNA guanine transglycosylase (TGT) (Zymomonas mobilis, UniProt P28720). Kind of data set: SPR. It counts as binding.
Chain of tRNA guanine transglycosylase (TGT) (P28720 2-386): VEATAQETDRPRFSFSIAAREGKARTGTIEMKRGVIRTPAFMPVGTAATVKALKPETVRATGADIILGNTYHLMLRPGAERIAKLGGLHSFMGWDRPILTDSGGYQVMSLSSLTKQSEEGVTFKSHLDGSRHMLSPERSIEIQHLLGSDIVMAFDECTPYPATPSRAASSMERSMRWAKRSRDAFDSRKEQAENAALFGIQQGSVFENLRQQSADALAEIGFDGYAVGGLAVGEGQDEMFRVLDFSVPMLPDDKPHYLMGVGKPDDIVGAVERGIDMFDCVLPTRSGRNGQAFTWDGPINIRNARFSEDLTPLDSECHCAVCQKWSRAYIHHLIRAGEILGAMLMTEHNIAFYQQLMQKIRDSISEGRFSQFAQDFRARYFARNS

With `CNc1nc2c(CCC3OC(OC)C(O)C3O)c3[nH]c(N)nc(=O)c3cc2[nH]1` (stereo not shown) [compound 1, 6‐amino‐4‐[2‐(3,4‐dihydroxy‐5‐methoxyoxolan‐2‐yl)ethyl]‐2‐(methylamino)‐1H,5H‐imidazo[4,5‐g]quinazolin‐8‐one], the Kd is 68 ± 5 nM.
